Source: patent publication US20090149463A1, “Therapeutic agents” (priority 2004, published 2009)

Legend:
[1] = biological target: T1, CB1 receptor (Homo sapiens, UniProt P21554); assay: [35S]-GTPγS binding assay on membranes from cells stably transfected with the CB1 gene, inhibition of CP55940 (EC80); assay type: biochemical; conditions: half maximal inhibition of GTPγS binding in presence of EC80 concentration of agonist CP55940; CB1-transfected cell membranes
T1 construct: expressed in transfected cells
T1 sequence (P21554 whole entry): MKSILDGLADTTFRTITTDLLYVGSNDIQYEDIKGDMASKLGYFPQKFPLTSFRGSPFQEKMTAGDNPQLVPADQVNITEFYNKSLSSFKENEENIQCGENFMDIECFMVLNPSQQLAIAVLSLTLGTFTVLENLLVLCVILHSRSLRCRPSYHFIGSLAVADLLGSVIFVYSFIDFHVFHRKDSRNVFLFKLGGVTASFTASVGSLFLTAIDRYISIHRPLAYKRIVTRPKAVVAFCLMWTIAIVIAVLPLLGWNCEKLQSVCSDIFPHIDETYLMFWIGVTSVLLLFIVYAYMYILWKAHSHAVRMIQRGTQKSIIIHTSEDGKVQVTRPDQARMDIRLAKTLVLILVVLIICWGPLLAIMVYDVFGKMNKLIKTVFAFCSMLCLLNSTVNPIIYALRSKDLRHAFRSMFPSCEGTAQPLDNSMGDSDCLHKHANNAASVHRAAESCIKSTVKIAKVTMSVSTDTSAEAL
Experimental: Compounds of the present invention are active against the receptor product of the CB1 gene. The affinity of the compounds of the invention for central cannabinoid receptors is demonstrable in methods described in Devane et al, Molecular Pharmacology, 1988, 34, 605 or those described in WO01/70700 or EP 656354. Alternatively the assay may be performed as follows.
10 μg of membranes prepared from cells stably transfected with the CB1 gene were suspended in 200 μl of 100 mM NaCl, 5 mM MgCl2, 1 mM EDTA, 50 mM HEPES (pH 7.4), 1 mM DTT, 0.1% BSA and 100 μM GDP. To this was added an EC80 concentration of agonist (CP55940), the required concentration of test compound and 0.1 μCi [^35S]-GTPγS. The reaction was allowed to proceed at 30° C. for 45 min. […] Filters were then covered with scintilant and counted for the amount of [^35S]-GTPγS retained by the filter.
Activity is measured in the absence of all ligands (minimum activity) or in the presence of an EC80 concentration of CP55940 (maximum activity). […] At various concentrations of novel ligand, activity is calculated as a percentage of the maximum activity and plotted. The data are fitted using the equation y=A+((B−A)/1+((C/x)UD)) and the IC50 value determined as the concentration required to give half maximal inhibition of GTPγS binding under the conditions used.

Compound | melting point [°C] | IC50 [1] [nM]
CCCS(=O)(=O)Oc1ccc(-c2c(C)c(C(=O)NN3CCCCC3)nn2-c2ccc(Cl)cc2Cl)cc1 [Example 1, Propane-1-sulfonic acid 4-[2-(2,4-dichlorophenyl)-4-methyl-5-(piperidin-1-ylcarbamoyl)2H-pyrazol-3-yl]-phenyl Ester] | 190 | –
CCCS(=O)(=O)Oc1ccc(-c2c(C)c(C(=O)NC3(C(=O)OC)CCCC3)nn2-c2ccc(Cl)cc2Cl)cc1 [Example 10, Methyl 1-{[(1-(2,4-dichlorophenyl)-4-methyl-5-{4[(propylsulfonyl)oxy]phenyl}-1H-pyrazol-3-yl)carbonyl]amino}cyclopentanecarboxylate] | – | 6
CCCOC(=O)Oc1ccc(-c2c(C)c(C(=O)NN3CCCCC3)nn2-c2ccc(Cl)cc2Cl)cc1 [Example 11, Carbonic acid 4-[2-(2,4-dichlorophenyl)-4-methyl-5-(piperidine-1-ylcarbamoyl)-2H-pyrazol-3-yl]-phenyl Ester Propyl Ester] | – | 6.4
